Experimental findings from US9067948B2 (Nimbus Iris, Inc., priority 2012, dated 2015) are described below.

A word on the IC50: it is the concentration that inhibits the measured activity by half. A low value points to inhibition by little substance.

The test concerns the target T1, IRAK-4 (Homo sapiens, UniProt Q9NWZ3).
T1 sequence (Q9NWZ3 1-460): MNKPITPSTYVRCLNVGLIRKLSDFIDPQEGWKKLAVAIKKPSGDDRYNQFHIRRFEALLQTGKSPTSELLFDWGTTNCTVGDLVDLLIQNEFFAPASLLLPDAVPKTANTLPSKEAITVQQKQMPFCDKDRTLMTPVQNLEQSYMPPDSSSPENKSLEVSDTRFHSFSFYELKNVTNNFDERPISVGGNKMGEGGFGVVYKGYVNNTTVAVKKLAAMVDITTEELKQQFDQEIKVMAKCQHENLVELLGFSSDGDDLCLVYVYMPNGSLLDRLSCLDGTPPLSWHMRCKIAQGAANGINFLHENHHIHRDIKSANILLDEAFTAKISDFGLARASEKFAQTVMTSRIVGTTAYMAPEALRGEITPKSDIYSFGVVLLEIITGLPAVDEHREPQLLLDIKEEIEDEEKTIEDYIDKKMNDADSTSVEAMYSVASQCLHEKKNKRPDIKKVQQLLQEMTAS
As to the kind of experiment: IRAK-4 activity inhibition assay (Caliper). The note with it: 3.5 nM IRAK4, 37 μM ATP, 1.5 μM Peptide 8, 28° C. 40 minutes. It counts as biochemical. The method, then: A 1× kinase base buffer was prepared from 50 mM HEPES, pH 7.5 and 0.0015% Brij-35. A stop buffer was prepared from 100 mM HEPES, pH 7.5, 0.015% Brij-35, 0.2% Coating Reagent #3, and 50 mM EDTA.
Test compound was diluted to 50× of the final desired highest inhibitor concentration in reaction by 100% DMSO. 100 ul of this compound dilution was transferred to a well in a 96-well plate.
Test compound was serially diluted by transferring 30 μl to 60 μl of 100% DMSO in the next well and so forth for a total of 10 concentrations. 100 μl of 100% DMSO was added to two empty wells for no compound control and no enzyme control in the same 96-well plate.
A new 96-well plate was marked as intermediate plate. 5 μl of compound serial dilution was transferred from source plate to the corresponding wells of the intermediate plate. 45 μl of 1× kinase base buffer (KB buffer) was added to each well of the intermediate plate. The intermediate plate was placed for 10 min on a shaker.
5 μl of each well was transferred from the 96-well intermediate plate to a 384-well plate in duplicates. For example, A1 of the 96-well plate is transferred to A1 and A2 of the 384-well plate. A2 of the 96-well plate is transferred to A3 and A4 of the 384-well plate, and so on.
IRAK4 and DTT in 1× kinase base buffer was added. The 2.5× enzyme mix contained 8.8 nM IRAK4 and 5 mM DTT.
Peptide 8, ATP, MgCl2 and MnCl2 were added in the 1× kinase base buffer. The 2.5× peptide mix contained 3.75 μM peptide 8, 92.5 μM ATP, 12.5 mM MgCl2 and 2.5 mM MnCl2.
Assay plate already contained 5 μl of compound in 10% DMSO. Added 10 μl of 2.5× enzyme solution to each well of the 384-well assay plate, except no enzyme control wells. The final concentration of IRAK4 in reaction was 3.5 nM. Added 10 μl of 1× kinase base buffer to no enzyme control wells in the assay plate. Incubated at room temperature for 10 min.
Added 10 μl of 2.5× peptide solution to each well of the 384-well assay plate. The final concentration of Peptide 8 and ATP was 1.5 μM and 37 μM, respectively. Incubated at 28° C. for 40 minutes. Added 25 μl of stop buffer to stop reaction. Collected data on Caliper.
Copied conversion % data from Caliper program. Converted conversion % values to percent inhibition values. Percent inhibition=(max−conversion %)/(max−min)*100, where “max” means the conversion % of DMSO control and “min” means the conversion % of no enzyme control.
Compound `N[C@H]1CC[C@H](Nc2ccnc3sc4c(c23)CCC4)CC1` [Compound I-205] gave a half-inhibitory concentration (IC50) of at most 5 µM. The figure for `CN(C)[C@H]1CC[C@H](Oc2ccnc3sc4c(c23)CCC4)CC1` [Compound I-1] is at most 5 µM. The figure for `CN[C@H]1CC[C@H](Nc2ccnc3sc4c(c23)CCC4)CC1` [Compound I-206, 1-N-methyl-4-N-[7-thia-9-azatricyclo[6.4.0.0[2,6]]dodeca-1(12),2(6),8,10-tetraen-12-yl]cyclohexane-1,4-diamine] is at most 5 µM. With `Cn1cc(Nc2cc(N[C@H]3CC[C@H](N4CCOCC4)CC3)c3c4c(sc3n2)CCC4)cn1` [Compound I-208, N2-(1-methyl-1H-pyrazol-4-yl)-N4-((1r,4r)-4-morpholinocyclohexyl)-6,7-dihydro-5H-cyclopenta[4,5]thieno[2,3-b]pyridine-2,4-diamine], the half-inhibitory concentration (IC50) was 20 to 50 µM. The figure for `CN(CC(=O)N1CCCC1)[C@H]1CC[C@H](Nc2ccnc3sc4c(c23)CCC4)CC1` [Compound I-207, 2-[methyl[4-([7-thia-9-azatricyclo[6.4.0.0[2,6]]dodeca-1(8),2(6),9,11-tetraen-12yl]amino)cyclohexyl]amino]-1-(pyrrolidin-1-yl)ethan-1-one] is at most 5 µM. As for `CN(C)[C@H]1CC[C@H](Nc2ccnc3sc4c(c23)CCC4)CC1` [Compound I-4, 1-N,1-N-dimethyl-4-N-[7-thia-9-azatricyclo[6.4.0.0^[2,6]]dodeca-1(12),2(6),8,10-tetraen-12-yl]cyclohexane-1,4-diamine], the concentration for half-maximal inhibition (IC50) was at most 5 µM. The result for `c1cc(N[C@H]2CC[C@H](N3CCOCC3)CC2)c2c3c(sc2n1)CCC3` [Compound I-2] reads at most 5 µM; that for `c1cc(O[C@H]2CC[C@H](N3CCOCC3)CC2)c2c3c(sc2n1)CCC3` [Compound I-3], at most 5 µM.
